From US20110319384A1, “Pharmaceutical Compositions” (priority 2005, published 2011)
Read-outs that look alike come from different tables or passages of the source.

Assays:
[1] = test system: outpatient adults with SRI-resistant OCD
[2] = test system: patients with GAD; details: hypothesis to be tested
[3] = test system: patients with GAD; details: hypothesis to be tested; remark: listed apart in the source
[4] = test system: patients with Social Anxiety Disorder (SAD)
[5] = test system: patients with major depression with prominent anxiety symptoms; assay: Example 33: double-blind randomized 8-week study, quetiapine augmentation of SSRIs/SNRIs
Method: Patients were also evaluated according to the CGI-S scale for severity, the Global Assessment scale (GAS) and for adverse events (AEs). Patients were evaluated at baseline and at Weeks 1, 2, 4, 6, and 8. Response was defined as a ≧50% reduction in HAM-D or HAM-A total scores from baseline to Week 8. Remission was defined as a HAM-D or HAM-A total score of 7 or lower at Week 8.
In order to be included in the study, patients had to have a DSM-IV diagnosis of major depression (HAM-D score ≧18), a CGI-S score ≧4, and a HAM-A score ≧14. […] Patients who had: (1) a current CNS disorder; (2) significant hepatic, renal or gastrointestinal impairment; (3) acute, unstable or significant and untreated medical conditions; (4) current substance abuse or dependence; or (5) were at risk for suicide were excluded. Pregnant or breast-feeding women were excluded also.

[6] = test system: patients with treatment resistant major depression; assay: Example 24: augmentation of antidepressant therapy, quetiapine versus lithium, 56 days; details: add-on to antidepressant
Method: The study compared tolerability and efficacy. […] Lithium was initiated at 600 mg/day, and maintained over Week 1 and 2 and subsequently adjusted to attain a level of 0.8-1.2 mmol/L. Lithium levels were taken weekly.
A total of 20 patients were randomized to 1 of the 2 treatment groups. The study population included men and women aged 18-65 years, with a diagnosis of major depression according to DSM-IV, Hamilton Depression Rating Scale (HAM-D)≧20 and a Clinical Global […] (CGI) score ≧4.
Patients were evaluated at baseline and then on days 7, 14, 28, 42, and 56 using the HAM-D, Montgomery-Asberg […] (MADRS), SAS, and Widlocher Psychomotor Retardation Scale.

[7] = depressive symptoms in GAD, vs placebo
[8] = patient satisfaction, vs placebo
[9] = response rate vs placebo, Day 57

`OCCOCCN1CCN(C2=Nc3ccccc3Sc3ccccc32)CC1` [quetiapine, 11-[4-[2-(2-hydroxyethoxy)ethyl]-1-piperazinyl]-dibenzo[b,f][1,4]thiazepine] was tested, and the “mean MADRS score at baseline” value ([1]; added to SRI) was “about 19”, the “mean MADRS score at trial end” value ([1]; added to SRI) was “about 15” and the “mean Y-BOCS score at baseline, the 5 patients that responded” value ([1]; added to SRI) was “about 30”. The “mean Y-BOCS score after treatment, the 5 patients that responded” value ([1]; added to SRI, 8 weeks) was “about 17”, the “patients who responded to treatment (≧25% decrease in Y-BOCS score at endpoint)” value ([1]; added to SRI, final mean dosage about 169 mg/day) was “Five of the 16” and the “most common adverse events” value ([1]; in vivo) was “Sedation and fatigue”. For the same compound, the “patients who withdrew because of an adverse event” value ([1]; in vivo) was 1 patient, the “severity of adverse events” value ([1]; in vivo) was “generally mild” and the “Somnolence: severity of AEs, time of first instance, withdrawals due to AE of somnolence” value ([2]; compared to placebo) was “generally mild, occurs early in”. For the same compound, the “Change from randomization in MADRS total score at Day 57” value [2, 7] was “Quetiapine is more effective”, the “Adverse events related to discontinuation; change in Discontinuation-Emergent Signs and Symptoms total score at Day 64 and Day 71” value ([2]; discontinuation symptoms) was “Quetiapine does not have” and the “Change from normal to Clinically Important in Physical Examinations; Laboratory values; Vital signs; ECGs” value ([2]; once daily up to 300 mg/day) was 300 mg/day is safe and well. The “Change from randomization in Q-les-Q Item 15 (Satisfaction with medication) at Day 57” value [2, 8] was “Quetiapine is more effective”, the “Change from randomization in HAM-A total score, HAM-A psychic cluster, HAM-A somatic cluster and CGI-S score at Day 8” value ([2]; patients with GAD, Day 8) was “anti-anxiety effect by Day 8” and the “Change from randomization in Q-les-Q total score and Q-les-Q Item 16 (Overall life satisfaction) at Day 57” value ([2]; quality of life, vs placebo) was “Quetiapine is more effective”. The “HAM-A Response (decrease from randomization total score of ≧50%) at Day 8” value ([2]; response rate vs placebo, Day 8) was “Quetiapine has a greater”, the “HAM-A Response (decrease from randomization total score of ≧50%) at Day 57” value [2, 9] was “Quetiapine has a greater” and the “Adverse events of nausea or vomiting” value ([2]; vs placebo) was “placebo levels of nausea and”. For the same compound, the “Adverse events related to EPS (including akathisia); change in SAS and BARS scores at Day 57” value ([2]; vs placebo) was “placebo levels of EPS”, the “HAM-A Remission (HAM-A total score ≦7) at Day 57” value ([2]; vs placebo, Day 57) was “Quetiapine is better than” and the “Change from randomization in CGI-S score, CGI-I (much or very much improved), HAM-A psychic cluster and HAMA somatic cluster at Day 57” value ([2]; vs placebo, across anxiety symptoms, Day 57) was “Quetiapine is more effective”. For the same compound, the “Adverse events of nausea or vomiting” value ([3]; compared to escitalopram) was “lower levels of nausea and”, the “Incidence of withdrawals due to adverse events” value ([3]; compared to escitalopram) was “Quetiapine has similar” and the “Sexual dysfunction: change from randomization in CSFQ total score at Day 57” value ([3]; compared to escitalopram) was “lower levels of sexual”. The “Somnolence: severity of AEs, time of first instance, withdrawals due to AE of somnolence” value ([3]; compared to placebo) was “generally mild, occurs early in”, the “Change from randomization in HAM-A total score, HAM-A psychic cluster, HAM-A somatic cluster and CGI-S score at Day 4” value ([3]; compared to placebo, Day 4) was “anti-anxiety effect by Day 4” and the “Change from randomization in MADRS total score at Day 57” value [3, 7] was “Quetiapine is more effective”. For the same compound, the “Adverse events related to discontinuation; change in Discontinuation-Emergent Signs and Symptoms total score at Day 64 and Day 71” value ([3]; discontinuation symptoms) was “Quetiapine does not have”, the “Change from normal to Clinically Important in Physical Examinations; Laboratory values; Vital signs; ECGs” value ([3]; once daily up to 300 mg/day) was 300 mg/day is safe and well and the “Change from randomization in Q-les-Q Item 15 (Satisfaction with medication) at Day 57” value [3, 8] was “Quetiapine is more effective”. For the same compound, the “Change from randomization in Q-les-Q total score and Q-les-Q Item 16 (Overall life satisfaction) at Day 57” value ([3]; quality of life, vs placebo) was “Quetiapine is more effective”, the “HAM-A Response (decrease from randomization total score of = 50%) at Day 4” value ([3]; response rate vs placebo, Day 4) was “Quetiapine has a greater” and the “HAM-A Response (decrease from randomization total score of = 50%) at Day 57” value [3, 9] was “Quetiapine has a greater”. For the same compound, the “Adverse events of nausea or vomiting” value ([3]; vs placebo) was “placebo levels of nausea and”, the “Adverse events related to EPS (including akathisia); change in SAS and BARS scores at Day 57” value ([3]; vs placebo) was “placebo levels of EPS” and the “HAM-A Remission (HAM-A total score = 7) at Day 57” value ([3]; vs placebo) was “Quetiapine is better than”. The “Sexual dysfunction: change from randomization in CSFQ total score at Day 57” value ([3]; vs placebo) was “placebo levels of sexual”, the “Change from randomization in CGI-S score, CGI-I (much or very much improved), HAM-A psychic and somatic clusters at Day 57” value ([3]; vs placebo, across anxiety symptoms) was “Quetiapine is more effective” and the “BSPS scores versus placebo at baseline or endpoint” value ([4]; in vivo) was “no significant differences”. The “SPIN or SDI scores versus placebo at baseline or endpoint” value ([4]; in vivo) was “no significant difference”, the “mean CGI-I scores at endpoint versus placebo” value ([4]; in vivo) was “no significant difference” and the “most frequent side effects” value ([4]; in vivo) was “drowsiness, dizziness, and nausea”. For the same compound, the serious adverse events ([4]; in vivo) was “No serious adverse events were reported”, the “patients who scored a 1 or 2 on the CGI-I scale” value ([4]; placebo 0%) was 40% and the “patients experiencing a ≧50% drop in BSPS score at endpoint compared with baseline” value ([4]; placebo 0%, mean final dose 147 mg twice a day) was 20%. For the same compound, the “mean HAM-A score at baseline” value ([5]; added to SSRI/SNRI) was “about 23”, the “mean HAM-D score at baseline” value ([5]; added to SSRI/SNRI) was “about 23” and the “mean HAM-A score after treatment” value ([5]; added to SSRI/SNRI, 8 weeks) was “about 10”. The “mean HAM-D score after treatment” value ([5]; added to SSRI/SNRI, 8 weeks) was “about 12”, the “mean improvement from baseline in HAM-A scores” value ([5]; added to SSRI/SNRI, 8 weeks, placebo about 5) was “about 13” and the “mean improvement from baseline in HAM-D scores” value ([5]; added to SSRI/SNRI, 8 weeks, placebo about 5, mean dose 202 mg/day) was “about 11”. The “CGI-S and GAS assessments” value ([5]; in vivo) was “significantly more effective than placebo”, the “serious AEs” value ([5]; in vivo) was “no serious AEs were reported” and the “patients with an increase in bodyweight ≧5 kg” value ([5]; no patients in the placebo group) was 6 patients. The “remission rate as assessed by HAM-A (total score of 7 or lower at Week 8)” value ([5]; placebo 17%) was 41%, the “remission rate as assessed by HAM-D (total score of 7 or lower at Week 8)” value ([5]; placebo 17%) was 31% and the “response rate as assessed by HAM-A (≧50% reduction to Week 8)” value ([5]; placebo 28%) was 62%. For the same compound, the “response rate as assessed by HAM-D (≧50% reduction to Week 8)” value ([5]; placebo 28%) was 48% and the “Widlocher Psychomotor Retardation Scale mean baseline score” value [6] was “about 30”.
